According to publication PMC4163640 (2014):

Tests used:
Assay in all cases: fluorescence titration
[1] = test system: G4 (DNA, G4) TTTTGGGGTTTT; conditions: K+ 10 mM, Mg2+ 1 mM; 50 mM Tris-borate pH 8.3 (TB), 25 °C; 1:1 model
[2] = test system: G8 (DNA, G4) TTTTGGGGGGGGTTTT; conditions: K+ 10 mM, Mg2+ 1 mM; 50 mM Tris-borate pH 8.3 (TB), 25 °C; 1:1 model
[3] = test system: G4T4G4 (DNA, G4) GGGGTTTTGGGG; conditions: K+ 5 mM, Li+ 95 mM; 10 mM lithium cacodylate pH 7.2 (5K), 25 °C; 1:1 model

Ka [1]: (1.4 ± 0.2) × 10^6 L·mol^-1
Ka [2]: (1.7 ± 0.2) × 10^6 L·mol^-1
Ka [3]: (1.26 ± 0.07) × 10^7 L·mol^-1
Compound: CCc1c(C)c2cc3nc(cc4nc(cc5c(CC)c(C)c(cc1[nH]2)n5C)C(C)=C4CCC(=O)O)C(CCC(=O)O)=C3C
